# Results taken from patent publication US9161910B2, “Method and pharmaceutical compositions for trans-buccal mucosa treatment of postprandial hyperglycaemia in type II diabetes” (priority 2009, dated 2015).
# Read-outs that look alike come from different tables or passages of the source.
# Legend:
# [1] = Complete dissolution in hydroalcoholic solution according to the invention; assay type: physicochemical; settings: approximately 50° hydroalcoholic solution
# Text: The term “dissolved in a stable and a complete manner” means a state of dissolution restoring the active principle to the molecular state, slightly ionized in its dissolving medium, the state of dissolution preventing any possibility of inopportune recrystallization.
# [2] = cited from earlier work; for distribution volume: in vivo
# plasma carrier proteins = settings: cited from earlier work
# [3] = cited from earlier work; for solubility in alcohol: alcohol / ethanol
# [4] = oral; cited from earlier work
# obese, diabetic patients = settings: continuous perfusion, 6 weeks; cited from earlier work
molecule,measurement,setting,value
"Cc1ccc(S(=O)(=O)NC(=O)NN2CC3CCCC3C2)cc1 (stereo not drawn) [Gliclazide, gliclazide]","complete dissolution, amount",[1],3.5 mg for 0.75 mL
same,distribution volume,[2],approximately 30 L
same,distribution volume,[2]; listed as gliclazide,30 L
same,hepatic metabolism (in words),[2]; oral,extensively metabolized by the first hepatic passage
same,binding to plasma carrier proteins,plasma carrier proteins,95%
same,solubility in alcohol,[3],slightly soluble in alcohol
same,solubility in water,[3],insoluble in water
"CN(C)C(=N)N=C(N)N [Metformin, metformin]",binding to plasma proteins (in words),plasma carrier proteins,not bound to plasma proteins
"CCOc1cc(CC(=O)N[C@@H](CC(C)C)c2ccccc2N2CCCCC2)ccc1C(=O)O [Repaglinide, repaglinide]",inter-individual variability in plasma concentration,[4],60%
same,intra-individual variability in plasma concentration,[4],35%
same,onset of insulinotropic response after taking,[4],approximately 30 min
"N[C@@H](CC(=O)N1CCn2c(nnc2C(F)(F)F)C1)Cc1cc(F)c(F)cc1F [Sitagliptin, sitagliptin]",bioavailability,[2]; oral,~87%
same,mean distribution volume in the organism,[2]; single dose of 100 mg intravenous,approximately 198 L
same,binding to plasma proteins (in words),plasma carrier proteins,bound to plasma proteins
same,solubility in organic solvents,[3],soluble in water and certain organic solvents
same,solubility in water,[3],soluble in water
"N#C[C@@H]1CCCN1C(=O)CNC12CC3CC(CC(O)(C3)C1)C2 [Vildagliptin, vildagliptin]",bioavailability,[2]; oral,approximately 85%
same,solubility in organic solvents,[3],soluble in water and organic solvents
same,solubility in water,[3],soluble in water
COc1ccc(Cl)cc1C(=O)NCCc1ccc(S(=O)(=O)NC(=O)NC2CCCCC2)cc1 [glibenclamide],"complete dissolution, amount",[1],1 mg per 1 mL
same,solubility in alcohol,[3],slightly soluble in ethanol
same,solubility in water,[3],practically insoluble in water
glucagon-like peptide-1 [GLP-1],reduction in postprandial glycemia,"obese, diabetic patients",5.5 mM
same,reduction of hemoglobin HbAlC,"obese, diabetic patients",1.3%
